Data as given in ChEMBL document CHEMBL3991601, “The target landscape of clinical kinase drugs” (Science, 2017).
The source made the active and inactive calls.

Tests used:
[1] = molecular target: T1, Activin receptor type-1B (Homo sapiens, UniProt P36896)
T1 sequence (P36896 whole entry): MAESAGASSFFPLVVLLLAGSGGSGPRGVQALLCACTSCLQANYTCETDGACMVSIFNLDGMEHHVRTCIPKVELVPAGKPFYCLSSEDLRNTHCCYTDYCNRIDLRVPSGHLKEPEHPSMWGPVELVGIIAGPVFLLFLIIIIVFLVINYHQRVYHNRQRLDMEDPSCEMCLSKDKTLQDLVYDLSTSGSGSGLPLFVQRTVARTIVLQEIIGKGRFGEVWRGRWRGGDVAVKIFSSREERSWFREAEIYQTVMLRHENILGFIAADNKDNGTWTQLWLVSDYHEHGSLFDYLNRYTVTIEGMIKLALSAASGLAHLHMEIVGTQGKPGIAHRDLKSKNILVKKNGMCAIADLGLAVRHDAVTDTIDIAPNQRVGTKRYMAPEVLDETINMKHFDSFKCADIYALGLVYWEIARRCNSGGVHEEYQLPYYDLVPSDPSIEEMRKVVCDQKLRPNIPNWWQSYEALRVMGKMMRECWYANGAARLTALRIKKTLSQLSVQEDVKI

[2] = molecular target: T2, Cytochrome c1, heme protein, mitochondrial (Homo sapiens, UniProt P08574)
T2 sequence (P08574 whole entry): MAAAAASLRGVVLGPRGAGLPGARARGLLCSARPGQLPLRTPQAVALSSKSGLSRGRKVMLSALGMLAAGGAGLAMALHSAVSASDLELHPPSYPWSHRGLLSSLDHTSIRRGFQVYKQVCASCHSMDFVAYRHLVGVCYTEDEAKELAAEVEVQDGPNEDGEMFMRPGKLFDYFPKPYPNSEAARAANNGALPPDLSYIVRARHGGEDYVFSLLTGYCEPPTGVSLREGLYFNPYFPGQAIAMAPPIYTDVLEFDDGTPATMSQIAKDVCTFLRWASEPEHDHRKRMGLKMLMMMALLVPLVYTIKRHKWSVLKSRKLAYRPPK

[3] = molecular target: T3, Phenylalanine--tRNA ligase beta subunit (Homo sapiens, UniProt Q9NSD9)
T3 sequence (Q9NSD9 whole entry): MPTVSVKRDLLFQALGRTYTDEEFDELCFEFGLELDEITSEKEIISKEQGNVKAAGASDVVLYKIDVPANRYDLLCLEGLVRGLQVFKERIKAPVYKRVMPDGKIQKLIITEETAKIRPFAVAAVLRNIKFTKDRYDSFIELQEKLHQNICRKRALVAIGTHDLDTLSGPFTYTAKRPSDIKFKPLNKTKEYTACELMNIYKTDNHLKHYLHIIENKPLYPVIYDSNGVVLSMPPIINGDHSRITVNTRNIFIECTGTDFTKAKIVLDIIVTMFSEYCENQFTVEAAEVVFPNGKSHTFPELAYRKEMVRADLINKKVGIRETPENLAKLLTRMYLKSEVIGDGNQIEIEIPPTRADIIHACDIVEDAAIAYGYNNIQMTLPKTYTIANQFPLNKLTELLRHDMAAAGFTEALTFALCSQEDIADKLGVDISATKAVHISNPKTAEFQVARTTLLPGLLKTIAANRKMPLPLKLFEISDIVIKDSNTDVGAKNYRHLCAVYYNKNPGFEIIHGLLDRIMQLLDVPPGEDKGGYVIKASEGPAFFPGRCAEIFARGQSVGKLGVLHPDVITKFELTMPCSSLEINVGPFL

[4] = molecular target: T4, Serine/threonine-protein kinase Nek2 (Homo sapiens, UniProt P51955)
T4 sequence (P51955 whole entry): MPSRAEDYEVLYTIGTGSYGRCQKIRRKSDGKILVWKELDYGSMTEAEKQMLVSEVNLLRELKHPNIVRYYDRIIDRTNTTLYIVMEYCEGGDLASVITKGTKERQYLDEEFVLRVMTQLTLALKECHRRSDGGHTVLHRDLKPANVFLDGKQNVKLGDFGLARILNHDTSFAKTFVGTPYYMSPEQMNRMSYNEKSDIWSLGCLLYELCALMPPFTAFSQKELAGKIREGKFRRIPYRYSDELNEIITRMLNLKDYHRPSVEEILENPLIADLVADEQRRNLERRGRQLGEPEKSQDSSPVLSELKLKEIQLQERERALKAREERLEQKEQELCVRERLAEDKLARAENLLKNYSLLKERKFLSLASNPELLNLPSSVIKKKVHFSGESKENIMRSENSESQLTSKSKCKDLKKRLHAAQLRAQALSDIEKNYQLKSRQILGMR

Measured: Kd
Note: in the data inactive means no Kd found up to 30 µM.

Cc1cc(Nc2nc(N[C@@H](C)c3ncc(F)cn3)ncc2Cl)n[nH]1 [AZD-1480]
inactive: [1] > 30 µM | [2] > 30 µM | [3] > 30 µM | [4] > 30 µM

COc1ccc(-c2ccc3ncc4c(c3c2)n(-c2ccc(N3CCNCC3)c(C(F)(F)F)c2)c(=O)n4C)cn1 [BGT-226 FREE BASE]
inactive: [1] > 30 µM | [2] > 30 µM | [3] > 30 µM | [4] > 30 µM

COc1cccc(Nc2ncnn3ccc(CN4CC[C@@H](N)[C@H](O)C4)c23)c1 [BMS-690514]
inactive: [1] > 30 µM | [2] > 30 µM | [3] > 30 µM | [4] > 30 µM

CCOc1ccn(-c2ccc(F)cc2)c(=O)c1C(=O)Nc1ccc(Oc2ccnc(N)c2Cl)c(F)c1 [BMS-777607]
inactive: [1] > 30 µM | [2] > 30 µM | [3] > 30 µM | [4] > 30 µM

COc1cc2nccc(Oc3ccc(NC(=O)C4(C(=O)Nc5ccc(F)cc5)CC4)cc3)c2cc1OC [CABOZANTINIB]
inactive: [1] > 30 µM | [2] > 30 µM | [3] > 30 µM | [4] > 30 µM

c1cc(OCCN2CCCCC2)cc(-c2n[nH]c3ccc(-c4nc[nH]n4)cc23)c1 [CC-401]
inactive: [1] > 30 µM | [2] > 30 µM | [3] > 30 µM | [4] > 30 µM

CC1(COc2ccc3c(c2)ncn3-c2ccc3cccc(N4CCC(N)CC4)c3n2)COC1 [CRENOLANIB]
inactive: [1] > 30 µM | [2] > 30 µM | [3] > 30 µM | [4] > 30 µM

COc1cc2ncnc(Nc3ccc(F)c(Cl)c3)c2cc1NC(=O)/C=C/CN1CCCCC1 [DACOMITINIB ANHYDROUS]
inactive: [1] > 30 µM | [2] > 30 µM | [3] > 30 µM | [4] > 30 µM

CC[C@@](C)(Nc1ccnc(-c2c[nH]c3ncccc23)n1)C(=O)NCC(F)(F)F [DECERNOTINIB]
inactive: [1] > 30 µM | [2] > 30 µM | [3] > 30 µM | [4] > 30 µM

CNC(=O)c1ccc(Nc2ncc(C(F)(F)F)c(NCc3nccnc3N(C)S(C)(=O)=O)n2)cc1 [DEFACTINIB]
inactive: [1] > 30 µM | [2] > 30 µM | [3] > 30 µM | [4] > 30 µM

COc1cc(Nc2ncc(F)c(Nc3ccc4c(n3)N(COP(=O)(O)O)C(=O)C(C)(C)O4)n2)cc(OC)c1OC [FOSTAMATINIB]
inactive: [1] > 30 µM | [2] > 30 µM | [3] > 30 µM | [4] > 30 µM

CCc1nc(C(N)=O)c(Nc2ccc(N3CCC(N4CCN(C)CC4)CC3)c(OC)c2)nc1NC1CCOCC1 [GILTERITINIB]
0.247 µM: [4]
0.202 µM: [2]
inactive: [1] > 30 µM | [3] > 30 µM

Cc1c(Cn2c(C)nc3c(C(=O)O)cc(N4CCOCC4)cc32)cccc1C(F)(F)F [GSK-2636771]
inactive: [1] > 30 µM | [2] > 30 µM | [3] > 30 µM | [4] > 30 µM

O=S(=O)(c1cccc2c(O)nccc12)N1CCCNCC1 [HYDROXYFASUDIL]
inactive: [1] > 30 µM | [2] > 30 µM | [3] > 30 µM | [4] > 30 µM

C#Cc1cccc(Nc2ncnc3cc4c(cc23)OCCOCCOCCO4)c1 [ICOTINIB]
inactive: [1] > 30 µM | [2] > 30 µM | [3] > 30 µM | [4] > 30 µM

COc1cc2ncnc3c2cc1OCCCCCN(C)Cc1ccc(Br)cc1N3 [JNJ-26483327]
inactive: [1] > 30 µM | [2] > 30 µM | [3] > 30 µM | [4] > 30 µM

Cc1ccc(C(=O)Nc2ccc(Oc3cc4cnn(C)c4cc3-c3cn[nH]c3)c(F)c2)c(=O)n1-c1ccc(F)cc1 [MERESTINIB]
inactive: [1] > 30 µM | [2] > 30 µM | [3] > 30 µM | [4] > 30 µM

O=C(NOC[C@H](O)CO)c1ccc(F)c(F)c1Nc1ccc(I)cc1F [MIRDAMETINIB]
inactive: [1] > 30 µM | [2] > 30 µM | [3] > 30 µM | [4] > 30 µM

N#CCNC(=O)c1ccc(-c2ccnc(Nc3ccc(N4CCOCC4)cc3)n2)cc1 [MOMELOTINIB]
inactive: [1] > 30 µM | [2] > 30 µM | [3] > 30 µM | [4] > 30 µM

COc1cccc2cc(-c3nc([C@H]4CC[C@H](C(=O)O)CC4)n4ncnc(N)c34)[nH]c12 [OSI-027]
inactive: [2] > 30 µM | [3] > 30 µM | [4] > 30 µM
active: [1] 0.549 µM

O=C(Nc1ccc(OC(F)(F)F)cc1)c1sccc1NCc1ccnc2ccccc12 [OSI-930]
inactive: [1] > 30 µM | [2] > 30 µM | [3] > 30 µM | [4] > 30 µM

C=CC(=O)Nc1cc(Nc2nccc(-c3cn(C)c4ccccc34)n2)c(OC)cc1N(C)CCN(C)C [OSIMERTINIB]
inactive: [1] > 30 µM | [2] > 30 µM | [3] > 30 µM | [4] > 30 µM

FC(F)(F)c1ccc(CNc2ccc(Cc3c[nH]c4ncc(Cl)cc34)cn2)cn1 [PEXIDARTINIB]
inactive: [1] > 30 µM | [2] > 30 µM | [3] > 30 µM | [4] > 30 µM

O=C(NC[C@H](O)CO)c1ccncc1Nc1ccc(I)cc1F [PIMASERTIB]
inactive: [1] > 30 µM | [2] > 30 µM | [3] > 30 µM | [4] > 30 µM

COc1cc(F)c(F)c(Nc2ccc(I)cc2F)c1NS(=O)(=O)C1(C[C@H](O)CO)CC1 [REFAMETINIB]
inactive: [1] > 30 µM | [2] > 30 µM | [3] > 30 µM | [4] > 30 µM

COCCN1CCN(Cc2ccc(-c3n[nH]c4c3C(=O)c3c(NC(=O)NN5CCOCC5)cccc3-4)cc2)CC1 [RGB-286638]
inactive: [1] > 30 µM | [2] > 30 µM | [3] > 30 µM | [4] > 30 µM

C=CC(=O)Nc1cccc(Nc2nc(Nc3ccc(N4CCN(C(C)=O)CC4)cc3OC)ncc2C(F)(F)F)c1 [ROCILETINIB]
inactive: [1] > 30 µM | [2] > 30 µM | [3] > 30 µM | [4] > 30 µM

O=C(O)c1ccc2c(c1)nc(Nc1cccc(Cl)c1)c1ccncc12 [SILMITASERTIB]
inactive: [1] > 30 µM | [2] > 30 µM | [3] > 30 µM | [4] > 30 µM

C=CCN(/C=C1/C(=O)O[C@H](COC)[C@@]2(C)C1=C(O)C(=O)C1=C2[C@H](OC(C)=O)C[C@]2(C)C(=O)CC[C@@H]12)CC=C [SONOLISIB]
inactive: [1] > 30 µM | [2] > 30 µM | [3] > 30 µM | [4] > 30 µM

CN1CCN(c2nc(C3=C(c4c[nH]c5ccccc45)C(=O)NC3=O)c3ccccc3n2)CC1 [SOTRASTAURIN]
inactive: [1] > 30 µM | [2] > 30 µM | [3] > 30 µM | [4] > 30 µM

CC(C)(O)CC(=O)NCCn1ccc2ncnc(Nc3ccc(Oc4cccc(C(F)(F)F)c4)c(Cl)c3)c21 [TAK-285]
inactive: [1] > 30 µM | [2] > 30 µM | [3] > 30 µM | [4] > 30 µM
